Assay results taken from the supplement of paper PMC10307832.

Columns and labels:
Assay in all cases: relative viability (nuclei count vs DMSO), 5 days (fraction); higher = more cells survive
[1] = compound: COc1cc(-c2nn([C@H]3CC[C@H](N4CCN(C(C)=O)CC4)CC3)c3ncnc(N)c23)ccc1NC(=O)c1cc2ccccc2n1C + O=C(c1cc(Cc2n[nH]c(=O)c3ccccc23)ccc1F)N1CCN(C(=O)C2CC2)CC1 [Olaparib] (partner 8 µM)
Outline: (§1)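 Medians of duplicate plates are given as relative viability. That measure is the nuclei count in treated wells divided by the count in vehicle wells. Counts were taken on 4× images of lung cancer cell lines in 1536-well plates, 5 days after pin-tool dosing the day after seeding with one drug alone or a fixed anchor-drug dose plus five library-drug doses (not always all listed) in √10 steps.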

[2] = compound: CO[C@@H]1[C@H](N(C)C(=O)c2ccccc2)C[C@H]2O[C@]1(C)n1c3ccccc3c3c4c(c5c6ccccc6n2c5c31)C(=O)NC4 [Midostaurin] + CS(=O)(=O)CCNCc1ccc(-c2ccc3ncnc(Nc4ccc(OCc5cccc(F)c5)c(Cl)c4)c3c2)o1 [Lapatinib] (partner 2 µM)
Outline: as §1

[3] = compound: CO[C@@H]1[C@H](N(C)C(=O)c2ccccc2)C[C@H]2O[C@]1(C)n1c3ccccc3c3c4c(c5c6ccccc6n2c5c31)C(=O)NC4 [Midostaurin] + Nc1ncn([C@H]2C[C@H](O)[C@@H](CO)O2)c(=O)n1 [Decitabine] (partner 2 µM)
Outline: as §1

[4] = compound: CO[C@@H]1[C@H](N(C)C(=O)c2ccccc2)C[C@H]2O[C@]1(C)n1c3ccccc3c3c4c(c5c6ccccc6n2c5c31)C(=O)NC4 [Midostaurin] + Nc1nc2[nH]cc(CCc3ccc(C(=O)N[C@@H](CCC(=O)O)C(=O)O)cc3)c2c(=O)[nH]1 [Pemetrexed] (partner 0.2 µM)
Outline: as §1

[5] = compound: COc1cc(-c2nn([C@H]3CC[C@H](N4CCN(C(C)=O)CC4)CC3)c3ncnc(N)c23)ccc1NC(=O)c1cc2ccccc2n1C + O=C(CCCCCCC(=O)Nc1ccccc1)NO [Vorinostat] (partner 1 µM)
Outline: as §1

UMC-11
relative viability ([1]; first compound 0.0128 µM): 0.388 | relative viability ([1]; first compound 0.04048 µM): 0.464 | relative viability ([1]; first compound 0.128 µM): 0.342 | relative viability ([1]; first compound 1.28 µM): 0.362 | relative viability ([2]; first compound 0.01 µM): 0.936 | relative viability ([2]; first compound 0.03162 µM): 0.836 | relative viability ([2]; first compound 0.1 µM): 0.937 | relative viability ([2]; first compound 0.3162 µM): 0.513 | relative viability ([3]; first compound 0.01 µM): 0.655 | relative viability ([3]; first compound 0.03162 µM): 0.772 | relative viability ([3]; first compound 0.1 µM): 0.637 | relative viability ([3]; first compound 0.3162 µM): 0.704 | relative viability ([4]; first compound 0.01 µM): 0.808 | relative viability ([4]; first compound 0.03162 µM): 0.753 | relative viability ([4]; first compound 0.1 µM): 0.65 | relative viability ([4]; first compound 0.3162 µM): 0.528 | relative viability ([5]; first compound 0.0128 µM): 0.44 | relative viability ([5]; first compound 0.04048 µM): 0.38 | relative viability ([5]; first compound 0.128 µM): 0.351 | relative viability ([5]; first compound 1.28 µM): 0.342
